Legend:
Experiment in all cases: ITC direct binding
Parameters in all cases: species or system A. thaliana
[1] = biological target: T1, FAMA_ACTL (Arabidopsis thaliana, UniProt Q56YJ8)
T1 construct: FAMA-ACTL (306-414); GST (N, cleaved yes); made in house; host or cells: E. coli BL21
Description: (§1) A. thaliana SCRM (1-494), ΔNSPCH (98-364), MUTE (1-202), ΔNFAMA (190-414), MUTEΔC (1-114), MUTER133A_R134A, MUTEE162A_E163A, MUTER133A_R134A_E162A_E163A, SCRM-ACTL (405-494), MUTE-ACTL (114-202), SPCH-ACTL (285-364), FAMA-ACTL (306-414), MUTE_ACTLR133A_R134A, MUTE_ACTLE162A_E163A, MUTE_ACTLR133A_R134A_E162A_E163A were cloned into pGEX-4T-1 vector with an N-terminal GST tag and a thrombin cleavage sequence. For protein expression, the constructs were transformed into E. coli strain BL21. For each transformant, a single colony was selected and incubated in 10 ml LB liquid media. The overnight-incubated E. coli suspensions were transferred to 1 L LB medium and incubated at 37 °C for around 2 h until the OD600 reached 0.4–0.6. The isopropyl β-D-1-thiogalactopyranoside ([…] of final concentration) was added to the cultures and the strains were incubated at 22 °C for a further 18 h. GST-fused proteins were purified using glutathione agarose resin. The soluble portion of the cell lysate was loaded onto a GST-Sepharose column. Nonspecifically bound proteins were removed by washing the column with 20 mM Tris pH 8.0, 200 mM NaCl. The bound GST-fused protein was eluted with 10 mm glutathione and 20 mM Tris pH 8.0, 200 mM NaCl. The GST-fused proteins were exchanged with phosphate-buffered saline buffer, and then the solution was treated with 50 μg of thrombin for 10–12 h at 16 ^οC. The GST portion of the protein was cleaved during thrombin digestion, and then the whole solution was reloaded onto the glutathione S-transferase column to obtain pure protein. The purified proteins were further purified by gel filtration on a Superdex-200 (GE) column using fast protein liquid chromatography and phosphate buffer (pH 7.2) as the eluent. The purity of the protein was checked by SDS-PAGE. For detailed lists of oligo DNA and plasmid information, see Supplementary Tables 5, 6, respectively.
(§2) Binding of the small molecule Stomidazolone (3) to SCRM, MUTE, SPCH, FAMA, MUTEΔC, MUTE_ACTL, SCRM_ACTL, SPCH_ACTL and FAMA_ACTL, MUTER133A_R134A, MUTEE162A_E163A, MUTER133A_R134A_E162A_E163A, as well as SCRM binding to MUTE in the presence and absence of Stomidazolone (3) / AYSJ1059 (5) /AYSJ1061 (6) was characterized at 30 °C using a Malvern PEAQ-ITC microcalorimeter. All the protein samples were dialyzed overnight using PBS buffer containing 2% DMSO and 1 mM DTT. Stomidazolone was dissolved in PBS buffer containing 2% DMSO and 1 mM DTT. Titrations were performed by injecting 1 × 0.5-μL and 12 × 3-μL or 1 × 0.75-μL and 18 × 2-μL or 1 × 0.2-μL and 25 × 1.3-μL aliquots of 1 mM Stomidazolone / AYSJ1059 / AYSJ1061 to 5-30 μM of protein in PBS buffer pH 7.4, containing 2% DMSO and 1 mM DTT. All titrations were carried out at least twice. The raw data were corrected using buffer and protein controls and analyzed using the software supplied by the manufacturer. See Supplementary Table 3 for details.

[2] = biological target: T2, MUTE_ACTLR133A_R134A (Arabidopsis thaliana, UniProt Q9M8K6, R133A/R134A); conditions: MUTE_ACTL R133A_R134A
T2 construct: MUTE-ACTL (114-202); made in house; host or cells: E. coli BL21
Description: as §1, §2

[3] = biological target: T3, SCRM (Arabidopsis thaliana, UniProt Q9LSE2)
T3 construct: SCRM (1-494); made in house; host or cells: E. coli BL21
T3 sequence (Q9LSE2 1-494): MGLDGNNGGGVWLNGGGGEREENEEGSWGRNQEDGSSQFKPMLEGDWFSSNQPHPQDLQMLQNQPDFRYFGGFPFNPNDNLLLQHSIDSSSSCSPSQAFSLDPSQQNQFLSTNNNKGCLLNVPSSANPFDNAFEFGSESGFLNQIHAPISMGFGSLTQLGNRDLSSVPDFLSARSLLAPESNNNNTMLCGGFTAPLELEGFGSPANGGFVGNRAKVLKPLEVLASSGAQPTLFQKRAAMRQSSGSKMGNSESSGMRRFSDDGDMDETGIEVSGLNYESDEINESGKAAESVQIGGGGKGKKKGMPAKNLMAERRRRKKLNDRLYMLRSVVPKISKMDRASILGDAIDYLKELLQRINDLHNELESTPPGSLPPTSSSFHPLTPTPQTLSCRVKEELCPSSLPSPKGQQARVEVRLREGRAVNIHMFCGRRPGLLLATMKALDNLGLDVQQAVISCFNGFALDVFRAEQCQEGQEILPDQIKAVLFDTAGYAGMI
Description: as §1, §2

[4] = biological target: T4, SCRM_ACTL (Arabidopsis thaliana, UniProt Q9LSE2)
T4 construct: SCRM-ACTL (405-494); GST (N, cleaved yes); made in house; host or cells: E. coli BL21
T4 sequence (Q9LSE2 405-494): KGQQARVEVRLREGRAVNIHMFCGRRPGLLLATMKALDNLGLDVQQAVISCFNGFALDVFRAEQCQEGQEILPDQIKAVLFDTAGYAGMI
Description: as §1, §2

[5] = biological target: T5, SPCH (Arabidopsis thaliana, UniProt Q700C7)
T5 construct: ΔNSPCH (98-364); made in house; host or cells: E. coli BL21
Description: as §1, §2

[6] = biological target: T6, SPCH_ACTL (Arabidopsis thaliana, UniProt Q700C7)
T6 construct: SPCH-ACTL (285-364); GST (N, cleaved yes); made in house; host or cells: E. coli BL21
Description: as §1, §2

T5 sequence (Q700C7 98-364): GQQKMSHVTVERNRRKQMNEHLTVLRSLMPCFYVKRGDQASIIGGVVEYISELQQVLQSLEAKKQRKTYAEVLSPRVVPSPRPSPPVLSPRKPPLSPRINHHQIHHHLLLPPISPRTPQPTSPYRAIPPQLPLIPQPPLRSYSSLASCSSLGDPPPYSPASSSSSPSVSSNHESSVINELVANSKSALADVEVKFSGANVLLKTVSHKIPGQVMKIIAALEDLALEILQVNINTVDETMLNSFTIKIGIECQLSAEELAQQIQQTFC
T1 sequence (Q56YJ8 306-414): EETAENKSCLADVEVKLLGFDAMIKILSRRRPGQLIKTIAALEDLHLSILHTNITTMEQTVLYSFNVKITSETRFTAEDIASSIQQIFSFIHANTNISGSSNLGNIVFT
T6 sequence (Q700C7 285-364): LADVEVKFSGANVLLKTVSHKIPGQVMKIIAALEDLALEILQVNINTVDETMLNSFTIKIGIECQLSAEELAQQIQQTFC
T2 sequence (Q9M8K6 114-202 R133A/R134A): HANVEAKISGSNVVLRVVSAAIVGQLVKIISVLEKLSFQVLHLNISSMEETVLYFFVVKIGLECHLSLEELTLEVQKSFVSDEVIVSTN

With `O=C1C(c2ccccc2)=NC(NS(=O)(=O)c2ccccc2)(c2ccccc2)N1S(=O)(=O)c1ccccc1` (centres unmarked) [Stomidazolone] the “-T△S” value [1] was 4.8 ± 0.2, the Kd [1] was 110 ± 13.8 µM and the “△H” value [1] was -8.2 ± 0.5. For the same molecule, the “-T△S” value [2] was 5.1 ± 0.2, the Kd [2] was 127 ± 28.5 µM and the “△G” value [2] was -3.8 ± 0.2. The “△H” value [2] was -8.9 ± 0.4, the “-T△S” value [3] was 4.1 ± 0.2 and the Kd [3] was 71.5 ± 5.1 µM. The “△G” value [3] was -4.8 ± 0.2, the “△H” value [3] was -8.9 ± 0.2 and the “-T△S” value [4] was 6.1 ± 0.2. The Kd [4] was 78.4 ± 5.1 µM, the “△G” value [4] was -3.2 ± 0.2 and the “△H” value [4] was -9.3 ± 0.4. For the same molecule, the “-T△S” value [5] was 3.6 ± 0.2, the Kd [5] was 79.6 ± 3.6 µM and the “△G” value [5] was -2.6 ± 0.2. The “△H” value [5] was -6.2 ± 0.5, the “-T△S” value [6] was 3.4 ± 0.2 and the Kd [6] was 96.8 ± 7.6 µM. The “△G” value [6] was -2.1 ± 0.2 and the “△H” value [6] was -5.5 ± 0.3.

Source: PMC11500415, “Chemical inhibition of stomatal differentiation by perturbation of the master-regulatory bHLH heterodimer via an ACT-Like domain” (Nature Communications, 2024)
